Assays:
Type in all cases: in vivo
[1] = test system: redroot pigweed (Amaranthus retroflexus, AMARE); assay: Pre-emerge test, greenhouse herbicide activity screening; settings: pre-emerge, 14 days after application, rating scale 0-100
In short: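 Herbicidal damage is scored 0 (none) to 100 (complete plant death) two weeks after a simulated field spray. Rates span 15–1000 g ai/ha, delivered in acetone at 187 l/ha. For post-emergence treatments, plants have 2–3 leaves and the spray carries 0.25% v/v non-ionic surfactant.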

[2] = test system: barnyardgrass (Echinochloa crus-galli, ECHCG); assay: as above; settings: pre-emerge, 14 days after application, rating scale 0-100
In short: (§1)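 Fourteen days after spraying, crop and weed injury was graded visually from 0, no effect, to 100, every plant dead. Test substances were dissolved in acetone and applied at 15–1000 g ai/ha with a flat-fan nozzle. Application was either pre-emergence, one day after sowing, or post-emergence at the 2–3 leaf stage.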

[3] = test system: common ragweed (Ambrosia artemisizfolia L., AMBEL); assay: as above; settings: pre-emerge, 14 days after application, rating scale 0-100
In short: as §1

[4] = test system: green foxtail (Setaria viridis, SETVI); assay: as above; settings: pre-emerge, 14 days after application, rating scale 0-100
In short: as §1

[5] = test system: ivyleaf morningglory (Ipomoea hederacea, IPOHE); assay: as above; settings: pre-emerge, 14 days after application, rating scale 0-100
In short: as §1

[6] = test system: johnsongrass (Sorghum halepense, SORHA); assay: as above; settings: pre-emerge, 14 days after application, rating scale 0-100
In short: as §1

[7] = test system: lambsquarters (Chenopodium album, CHEAL); assay: as above; settings: pre-emerge, 14 days after application, rating scale 0-100
In short: as §1

[8] = test system: large crabgrass (Digitaria sanguinalis, DIGSA); assay: as above; settings: pre-emerge, 14 days after application, rating scale 0-100
In short: as §1

[9] = test system: sicklepod (Cassia obtusifolia, CASOB); assay: as above; settings: pre-emerge, 14 days after application, rating scale 0-100
In short: as §1

[10] = test system: velvetleaf (Abutilon theophrasti, ABUTH); assay: as above; settings: pre-emerge, 14 days after application, rating scale 0-100
In short: as §1

[11] = test system: field corn (Zea mays L., var. Dekalb 535, CORN); assay: Pre-emerge test, crop safety; settings: pre-emerge, 14 days after application, rating scale 0-100
In short: (§2)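 Applied at 15–1000 g ai/ha from acetone in 187 l/ha spray volume. Post-emergence applications included 0.25% v/v non-ionic surfactant and reached plants sown 8–21 days before. Pre-emergence applications were incorporated by surface watering. Efficacy or crop damage was rated on a 0–100 scale after 14 days.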

[12] = test system: upland rice (Oryza sp., var. Tebonnet, RICE); assay: Pre-emerge test, crop safety; settings: pre-emerge, 14 days after application, rating scale 0-100
In short: as §2

[13] = test system: barnyardgrass (Echinochloa crus-galli, ECHCG); assay: Post-emerge test, greenhouse herbicide activity screening; settings: post-emerge, 14 days after application, rating scale 0-100
In short: (§3)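 Each test used a mechanized track sprayer delivering 187 l/ha of acetone solution at 15–1000 g ai/ha. Post-emerge foliage at 2–3 leaves was treated with added 0.25% v/v non-ionic surfactant and bottom-watered only. Injury was assessed on day 14, where 100 means total kill.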

[14] = test system: green foxtail (Setaria viridis, SETVI); assay: as above; settings: post-emerge, 14 days after application, rating scale 0-100
In short: as §3

[15] = test system: ivyleaf morningglory (Ipomoea hederacea, IPOHE); assay: as above; settings: post-emerge, 14 days after application, rating scale 0-100
In short: as §3

[16] = test system: johnsongrass (Sorghum halepense, SORHA); assay: as above; settings: post-emerge, 14 days after application, rating scale 0-100
In short: as §3

[17] = test system: lambsquarters (Chenopodium album, CHEAL); assay: as above; settings: post-emerge, 14 days after application, rating scale 0-100
In short: as §3

[18] = test system: large crabgrass (Digitaria sanguinalis, DIGSA); assay: as above; settings: post-emerge, 14 days after application, rating scale 0-100
In short: as §3

[19] = test system: redroot pigweed (Amaranthus retroflexus, AMARE); assay: as above; settings: post-emerge, 14 days after application
In short: as §3

[20] = test system: sicklepod (Cassia obtusifolia, CASOB); assay: as above; settings: post-emerge, 14 days after application, rating scale 0-100
In short: as §3

[21] = test system: velvetleaf (Abutilon theophrasti, ABUTH); assay: as above; settings: post-emerge, 14 days after application, rating scale 0-100
In short: as §3

[22] = test system: field corn (Zea mays L., var. Dekalb 535, CORN); assay: Post-emerge test, crop safety; settings: post-emerge, 14 days after application, rating scale 0-100
In short: as §1

[23] = test system: upland rice (Oryza sp., var. Tebonnet, RICE); assay: Post-emerge test, crop safety; settings: post-emerge, 14 days after application, rating scale 0-100
In short: as §1

C=CC=NNc1c(OC)c(Cl)cc(F)c1-n1c(=O)cc(C(F)(F)F)n(C)c1=O [15-10]
phytotoxicity rating AMARE ([1]; 63 g ai/ha): 100 | phytotoxicity rating AMARE ([1]; 250 g ai/ha): 100 | phytotoxicity rating ECHCG ([2]; 63 g ai/ha): 99 | phytotoxicity rating ECHCG ([2]; 250 g ai/ha): 100 | phytotoxicity rating AMBEL ([3]; 63 g ai/ha): 100 | phytotoxicity rating AMBEL ([3]; 250 g ai/ha): 100 | phytotoxicity rating SETVI ([4]; 63 g ai/ha): 100 | phytotoxicity rating SETVI ([4]; 250 g ai/ha): 100 | phytotoxicity rating IPOHE ([5]; 63 g ai/ha): 100 | phytotoxicity rating IPOHE ([5]; 250 g ai/ha): 100 | phytotoxicity rating SORHA ([6]; 63 g ai/ha): 100 | phytotoxicity rating SORHA ([6]; 250 g ai/ha): 100 | phytotoxicity rating CHEAL ([7]; 63 g ai/ha): 100 | phytotoxicity rating CHEAL ([7]; 250 g ai/ha): 100 | phytotoxicity rating DIGSA ([8]; 63 g ai/ha): 100 | phytotoxicity rating DIGSA ([8]; 250 g ai/ha): 100 | phytotoxicity rating CASOB ([9]; 63 g ai/ha): 80 | phytotoxicity rating CASOB ([9]; 250 g ai/ha): 100 | phytotoxicity rating ABUTH ([10]; 63 g ai/ha): 100 | phytotoxicity rating ABUTH ([10]; 250 g ai/ha): 100 | phytotoxicity rating CORN ([11]; 63 g ai/ha): 75 | phytotoxicity rating CORN ([11]; 250 g ai/ha): 100 | phytotoxicity rating RICE ([12]; 63 g ai/ha): 80 | phytotoxicity rating RICE ([12]; 250 g ai/ha): 100 | Post-emerge Herbicidal Activity ECHCG (phytotoxicity rating) ([13]; 63 g ai/ha): 10 | Post-emerge Herbicidal Activity ECHCG (phytotoxicity rating) ([13]; 250 g ai/ha): 80 | Post-emerge Herbicidal Activity SETVI (phytotoxicity rating) ([14]; 63 g ai/ha): 30 | Post-emerge Herbicidal Activity SETVI (phytotoxicity rating) ([14]; 250 g ai/ha): 75 | Post-emerge Herbicidal Activity IPOHE (phytotoxicity rating) ([15]; 63 g ai/ha): 100 | Post-emerge Herbicidal Activity IPOHE (phytotoxicity rating) ([15]; 250 g ai/ha): 100 | Post-emerge Herbicidal Activity SORHA (phytotoxicity rating) ([16]; 63 g ai/ha): 30 | Post-emerge Herbicidal Activity SORHA (phytotoxicity rating) ([16]; 250 g ai/ha): 70 | Post-emerge Herbicidal Activity CHEAL (phytotoxicity rating) ([17]; 63 g ai/ha): 100 | Post-emerge Herbicidal Activity CHEAL (phytotoxicity rating) ([17]; 250 g ai/ha): 100 | Post-emerge Herbicidal Activity DIGSA (phytotoxicity rating) ([18]; 63 g ai/ha): 60 | Post-emerge Herbicidal Activity DIGSA (phytotoxicity rating) ([18]; 250 g ai/ha): 90 | Post-emerge Herbicidal Activity AMARE (phytotoxicity rating) ([19]; 63 g ai/ha, rating scale 0-100 (0 no damage, 100 complete death)): 100 | Post-emerge Herbicidal Activity AMARE (phytotoxicity rating) ([19]; 250 g ai/ha, rating scale 0-100): 100 | Post-emerge Herbicidal Activity CASOB (phytotoxicity rating) ([20]; 63 g ai/ha): 100 | Post-emerge Herbicidal Activity CASOB (phytotoxicity rating) ([20]; 250 g ai/ha): 100 | Post-emerge Herbicidal Activity ABUTH (phytotoxicity rating) ([21]; 63 g ai/ha): 100 | Post-emerge Herbicidal Activity ABUTH (phytotoxicity rating) ([21]; 250 g ai/ha): 100 | Post-emerge Herbicidal Activity CORN (crop damage rating) ([22]; 63 g ai/ha): 45 | Post-emerge Herbicidal Activity CORN (crop damage rating) ([22]; 250 g ai/ha): 65 | Post-emerge Herbicidal Activity RICE (crop damage rating) ([23]; 63 g ai/ha): 50 | Post-emerge Herbicidal Activity RICE (crop damage rating) ([23]; 250 g ai/ha): 80

Source: patent US6355799B1, “Substituted benzene compounds, process for their preparation, and herbicidal and defoliant compositions containing them” (ISK Americas Incorporated, priority 1997, dated 2002)
